One data set relates to CYP3A4. The data set is described as follows: Paclitaxel metabolism in primary human hepatocytes (LC/MS/MS). Type of data set: in vitro ADME. Conditions: 10 µM SPA70, 1 µM PTX, 24 or 48 h. Here is the method: Calibration and quality-control samples were prepared.
The target of another data set is T1, hCAR (Homo sapiens, UniProt Q14994).
T1 construct: expressed in transfected cells; host or cells: HepG2
The data set can be described thus: hCAR transactivation assay, inverse agonistic mode. Type of data set: cell-based.

A further data set concerns hPXR. The data set is described as follows: Liver Cyp3a11 mRNA and protein in hPXR transgenic mice. Conditions: hPXR humanized transgenic mice, SPA70 200 mg kg−1, RIF 10 mg kg−1, 72 h. Type of data set: in vivo, mouse. As for the experimental part:
Cells were rinsed once with cold PBS then lysed in RIPA lysis buffer (Thermo Fisher Scientific) containing protease inhibitor (Roche). Mouse liver samples were homogenized in 500 μl of cold RIPA lysis buffer in a Bullet Blender Blue homogenizer (Next Advance, Averill Park, NY). Then, 25 μg of total protein lysates were loaded onto NuPAGE 4%–12% Bis-Tris gels (Invitrogen) with NuPAGE MES SDS running buffer (Invitrogen). The proteins were transferred from the gel to a nitrocellulose membrane by using the iBlot gel-transfer system (Invitrogen). […] The relative intensity of each protein band was then determined by normalizing the intensity of each protein band to that of actin. […]
The method used for RNA extraction and polymerase chain reaction with reverse transcription (RT-PCR) has been described previously. […] Quantitative RT-PCR was performed in accordance with the manufacturer’s protocol by using TaqMan gene expression assays (Thermo Fisher Scientific) specific for the hPXR and Cyp3a11 genes, with GAPDH or 18s rRNA as the reference gene, in an ABI 7900HT Fast Real-Time PCR System (Thermo Fisher Scientific). […] The comparative threshold (Ct) method was used for the relative quantification of gene expression by the following formulae: ΔCt = Ct (test gene) − Ct (GAPDH); ΔΔCt (test gene) = ΔCt (test gene in treatment group) − ΔCt (test gene in vehicle control group). […]

The test system of another data set is HepG2 cells. The data set can be described thus: One- and 3-day cytotoxicity assay. Type of data set: cell-based, human. The conditions noted are these: HepG2, one- and 3-day. Here is the method: (§1) After the plated had been incubated for 24 or 72 h at 37 °C, the cytotoxicity was determined using a CellTiter-Glo luminescent cell viability assay (Promega). […] The final DMSO concentration was 0.5% for all wells.

For the next data set, the system named is HEK293 cells. The data set can be described thus: One- and 3-day cytotoxicity assay. Type of data set: cell-based, human. The conditions noted are these: HEK293, one- and 3-day. As for the experimental part:
as §1

The test system of a further data set is Cyp3a11. The data set is described as follows: Loss of righting reflex (LORR) assay in hPXR-tg mice. Type of data set: in vivo, mouse. The conditions noted are these: hPXR humanized mice, SPA70 200 mg kg−1 i.p., RIF 10 mg kg−1. Here is the method:
The LORR assay method has been described previously, by using 2,2,2-tribromoethanol, a substrate of mouse Cyp3a11 which is induced by hPXR. Mice were first injected intraperitoneally with 250 mg kg^−1 of 2,2,2-tribromoethanol, then placed on their backs under a heat lamp as soon as they lost their righting reflex. The LORR duration was defined as the time period from the start of LORR to when mice could right themselves twice within 1 min, after being placed on their backs. For each mouse, a baseline LORR duration was first established before oral administration of vehicle or compounds. […] A paired Student’s t-test was used to compare the LORR duration at baseline and after treatment. A P-value of less than 0.05 was considered to indicate a significant difference between the compared groups.

Data set [1] concerns panel of seven other human nuclear receptors. The data set is described as follows: GeneBLAzer nuclear receptor panel, agonistic and antagonistic modes. Type of data set: cell-based. Here is the method: For the GeneBLAzer NR-UAS-bla HEK 293 T assays for VDR, RXRα, RXRβ, FXR, GR, LXRα, LXRβ and PPARγ, GeneBLAzer panel nuclear receptor cells, the LiveBLAzer FRET-B/G Loading Kit with CCF4-AM, and all tissue culture reagents were purchased from Thermo Fisher Scientific. The assays were performed in accordance with the manufacturer’s instructions, with minor modifications as reported previously[48]–[50]. Briefly, positive control (as described for each assay), DMSO, and dilutions of test chemicals either alone (for agonistic assays) or in combination with an approximately EC80 concentration of a specific agonist (for antagonistic assays) were incubated with an optimized number of cells for each assay in wells of black 384-well tissue culture-treated clear-bottom plates with 30 µl of the respective assay medium in a 37 °C cell-culture incubator. A group of wells containing assay medium and DMSO, but no cells, served as a background control. The final DMSO concentration was 0.5% for all wells. After 24 h, 6 µl per well of loading solution was added, and this step was followed by an optimal period of incubation at room temperature in the dark before the fluorescent emission at 460 and 535 nm (using excitation at 400 nm) was measured with an EnVision plate reader. […]

Another data set deals with C57BL/6 mice. The data set is described as follows: Animal acute toxicity study. Conditions: oral 500 mg kg−1, days 13 and 15.

“Also recorded” adds a separate entry of the source.

T1 sequence (Q14994 whole entry): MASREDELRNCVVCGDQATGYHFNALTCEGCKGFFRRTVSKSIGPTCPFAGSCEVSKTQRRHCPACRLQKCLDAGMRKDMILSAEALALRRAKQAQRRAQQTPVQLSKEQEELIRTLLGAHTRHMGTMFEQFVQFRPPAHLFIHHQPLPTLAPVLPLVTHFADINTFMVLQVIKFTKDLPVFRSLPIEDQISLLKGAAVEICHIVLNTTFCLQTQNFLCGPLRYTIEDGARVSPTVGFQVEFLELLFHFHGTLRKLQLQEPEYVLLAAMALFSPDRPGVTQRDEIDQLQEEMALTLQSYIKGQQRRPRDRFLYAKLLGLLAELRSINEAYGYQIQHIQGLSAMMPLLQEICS
Description for C57BL/6 mice: In the animal acute toxicity studies, C57BL/6 mice were randomly apportioned among six groups, with five mice per group. […] After dosing, mice were monitored daily for 15 days for morbidity and mortality. Signs of morbidity included ruffled fur, hunching, tremors, lethargy, hyperactivity and diarrhea, in addition to a reduction in weight gain. The body weight of each mouse was recorded before and after treatment. At day 15, all mice were killed and a terminal blood sample was collected for examination of clinical chemistries (e.g., renal, liver and hematopoietic function). Histopathological examination of the major organs was performed with hematoxylin and eosin staining.
Description for hCAR: The hCAR transactivation assays were performed as described previously[48]. […] The relative luciferase activity was determined by normalizing the firefly luciferase signal to the Renilla luciferase signal and was used to represent the ‘relative activity of CAR’. The final DMSO concentration was 0.4% in all assays.

As to `COc1ccc(OC)c(-n2nnc(S(=O)(=O)c3ccc(C(C)(C)C)cc3)c2C)c1` [SPA70], the “Effect on metabolism of paclitaxel to 3′-p-hydroxypaclitaxel or 6α-hydroxypaclitaxel” value with CYP3A4 is “substantially blocked”. At hCAR, the “Effect on basal activity of CAR” value was “very weak CAR inverse agonist; also recorded: very weakly inhibited the basal activity”. Moreover, the “Effect on rifampicin-induced expression of Cyp3a11 (mRNA and protein)” value in the data set with hPXR is on record as “effectively blocked the rifampicin-induced expression of Cyp3a11”. For the same compound, the Cytotoxicity result with HepG2 cells and with HEK293 cells was “marginal cytotoxicity” each time. In the data set with Cyp3a11, the “Effect on rifampicin-induced metabolism of 2,2,2-tribromoethanol by Cyp3a11 (LORR)” value is recorded as “effectively blocked”. In data set [1], the “Agonistic or antagonistic activity against other human nuclear receptors” value is given as “no detectable agonistic or antagonistic activity”. For the same compound, the Mouse body weight result in the data set on C57BL/6 mice is recorded as “increase in mouse body weight”.

The values are drawn from PMC5622171 (Nature Communications, 2017).
